Reference: ChEMBL document CHEMBL1201862, “PubChem BioAssay data set” (2004)
Calls of active or inactive are those of the source.

Key:
[1] = biological target: T1, Short transient receptor potential channel 4 (Mus musculus, UniProt Q9QUQ5); assay: calcium entry via TRPC4 opening agents – cell-based, HEK293 TRPC4/mu-opioid, Fluo-4 calcium, dose response (AID 434937); format: functional
T1 sequence (Q9QUQ5 whole entry): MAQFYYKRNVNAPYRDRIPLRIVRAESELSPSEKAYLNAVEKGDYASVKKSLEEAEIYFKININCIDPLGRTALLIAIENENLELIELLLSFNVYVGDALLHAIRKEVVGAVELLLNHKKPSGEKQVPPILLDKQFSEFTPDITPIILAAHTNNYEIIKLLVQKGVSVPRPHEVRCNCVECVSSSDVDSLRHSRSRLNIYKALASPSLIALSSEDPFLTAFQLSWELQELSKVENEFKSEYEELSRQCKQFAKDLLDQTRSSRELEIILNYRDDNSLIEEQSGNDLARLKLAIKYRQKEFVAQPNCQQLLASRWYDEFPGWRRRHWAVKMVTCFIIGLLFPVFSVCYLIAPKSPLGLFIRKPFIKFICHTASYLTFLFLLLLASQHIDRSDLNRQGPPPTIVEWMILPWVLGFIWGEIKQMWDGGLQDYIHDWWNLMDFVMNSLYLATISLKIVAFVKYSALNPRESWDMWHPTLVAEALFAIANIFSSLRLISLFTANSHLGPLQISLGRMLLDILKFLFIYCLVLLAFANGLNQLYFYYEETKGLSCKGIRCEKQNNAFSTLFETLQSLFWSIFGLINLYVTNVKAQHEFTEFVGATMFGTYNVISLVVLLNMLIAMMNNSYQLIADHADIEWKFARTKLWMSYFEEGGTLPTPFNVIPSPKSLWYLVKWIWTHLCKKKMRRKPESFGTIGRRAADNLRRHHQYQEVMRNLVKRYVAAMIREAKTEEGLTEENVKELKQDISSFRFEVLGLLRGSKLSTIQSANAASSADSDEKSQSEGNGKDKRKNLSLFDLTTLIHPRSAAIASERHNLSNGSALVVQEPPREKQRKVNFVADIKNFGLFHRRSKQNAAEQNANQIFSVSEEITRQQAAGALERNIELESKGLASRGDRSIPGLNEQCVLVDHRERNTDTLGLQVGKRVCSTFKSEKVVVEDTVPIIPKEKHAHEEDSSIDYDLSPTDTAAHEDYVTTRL

[2] = biological target: T2, Ubiquitin-conjugating enzyme E2 N (Homo sapiens, UniProt P61088); format: functional
T2 sequence (P61088 whole entry): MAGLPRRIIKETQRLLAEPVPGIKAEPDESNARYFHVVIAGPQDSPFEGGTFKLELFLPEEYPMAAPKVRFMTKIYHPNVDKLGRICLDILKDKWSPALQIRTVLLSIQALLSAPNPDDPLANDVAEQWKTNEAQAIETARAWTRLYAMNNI

[3] = system: Streptococcus sp. 'group A'; assay: Streptococcus pyogenes SK(-)GAS viability under kanamycin – luminescence, BacTiterGlo, confirmation, counter-screen for streptokinase expression inhibitor project, dose response (AID 1900); format: functional, organism-based
[4] = biological target: T2, Ubiquitin-conjugating enzyme E2 N; format: functional; remark: listed apart in the source
Bcl-2-related protein A1 = biological target: T3, Bcl-2-related protein A1 (Mus musculus, UniProt Q07440); format: functional;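 further: confirmatory dose–response counterscreen on Bfl-1, used to check hits from a UBC13 polyubiquitin inhibitor campaign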
T3 sequence (Q07440 whole entry): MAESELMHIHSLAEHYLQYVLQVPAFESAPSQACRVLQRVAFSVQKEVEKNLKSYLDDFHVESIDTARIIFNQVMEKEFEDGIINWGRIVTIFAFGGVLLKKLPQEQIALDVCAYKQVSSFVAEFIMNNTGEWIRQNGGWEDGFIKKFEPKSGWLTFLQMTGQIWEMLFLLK

Streptococcus = assay: GAS UMAA2166 growth inhibition – luminescence, BacTiterGlo, counter-screen for streptokinase expression inhibitor project, dose response (AID 1915); format: functional, organism-based;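 further: potency for reduction of bacterial viability or growth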
[5] = biological target: T4, Type-1 angiotensin II receptor (Homo sapiens, UniProt P30556); assay: antagonism of angiotensin II type 1 receptor – cell-based, uHTS hits, selectivity assay for APJ receptor antagonist project, dose response (AID 463214); format: functional;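 further: antagonist potency against angiotensin II stimulated AT1 response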
T4 sequence (P30556 whole entry): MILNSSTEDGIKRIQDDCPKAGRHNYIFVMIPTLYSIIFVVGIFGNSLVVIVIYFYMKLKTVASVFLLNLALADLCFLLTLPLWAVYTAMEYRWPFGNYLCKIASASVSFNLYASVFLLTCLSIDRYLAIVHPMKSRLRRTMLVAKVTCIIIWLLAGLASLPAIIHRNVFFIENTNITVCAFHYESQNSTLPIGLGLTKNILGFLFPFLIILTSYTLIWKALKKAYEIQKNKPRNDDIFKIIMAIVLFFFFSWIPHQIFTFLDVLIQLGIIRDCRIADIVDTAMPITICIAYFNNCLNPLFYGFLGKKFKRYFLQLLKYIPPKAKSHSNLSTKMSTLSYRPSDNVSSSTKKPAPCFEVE

Beta-galactosidase = Beta-galactosidase (Escherichia coli, UniProt Q8VNN2); assay: PubChem AID 485352; format: functional
Chain of Beta-galactosidase (Q8VNN2 whole entry): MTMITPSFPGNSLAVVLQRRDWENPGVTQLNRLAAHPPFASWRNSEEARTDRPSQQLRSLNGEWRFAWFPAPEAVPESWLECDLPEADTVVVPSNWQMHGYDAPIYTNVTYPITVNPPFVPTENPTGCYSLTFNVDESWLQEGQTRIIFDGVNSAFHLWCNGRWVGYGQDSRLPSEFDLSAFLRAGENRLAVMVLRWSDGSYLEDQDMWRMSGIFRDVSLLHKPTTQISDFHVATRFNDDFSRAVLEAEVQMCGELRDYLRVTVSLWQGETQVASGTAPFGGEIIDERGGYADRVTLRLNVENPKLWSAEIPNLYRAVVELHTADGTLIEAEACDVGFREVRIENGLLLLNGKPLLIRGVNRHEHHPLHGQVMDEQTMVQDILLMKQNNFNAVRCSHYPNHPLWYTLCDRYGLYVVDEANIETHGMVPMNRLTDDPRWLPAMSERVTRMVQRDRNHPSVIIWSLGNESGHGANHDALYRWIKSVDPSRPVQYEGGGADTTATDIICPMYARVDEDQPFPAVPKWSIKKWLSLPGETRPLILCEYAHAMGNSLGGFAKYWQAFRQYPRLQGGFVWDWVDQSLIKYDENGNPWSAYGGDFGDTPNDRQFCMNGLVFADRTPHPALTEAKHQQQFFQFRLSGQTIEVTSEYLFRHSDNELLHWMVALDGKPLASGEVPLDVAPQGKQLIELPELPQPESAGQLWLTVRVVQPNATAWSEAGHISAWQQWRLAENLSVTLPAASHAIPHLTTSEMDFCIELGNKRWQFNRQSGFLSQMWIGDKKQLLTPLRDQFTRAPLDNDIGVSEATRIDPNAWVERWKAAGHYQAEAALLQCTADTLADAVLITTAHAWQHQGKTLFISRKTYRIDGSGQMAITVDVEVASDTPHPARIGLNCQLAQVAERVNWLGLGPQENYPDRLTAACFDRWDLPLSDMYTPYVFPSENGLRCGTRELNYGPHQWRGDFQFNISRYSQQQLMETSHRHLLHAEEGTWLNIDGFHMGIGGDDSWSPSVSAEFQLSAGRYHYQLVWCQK

Cytochrome P450 3A4 = Cytochrome P450 3A4 (Homo sapiens, UniProt P08684);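 further: CYP3A4 tested as one member of a cytochrome P450 panel screen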
Chain of Cytochrome P450 3A4 (P08684 whole entry): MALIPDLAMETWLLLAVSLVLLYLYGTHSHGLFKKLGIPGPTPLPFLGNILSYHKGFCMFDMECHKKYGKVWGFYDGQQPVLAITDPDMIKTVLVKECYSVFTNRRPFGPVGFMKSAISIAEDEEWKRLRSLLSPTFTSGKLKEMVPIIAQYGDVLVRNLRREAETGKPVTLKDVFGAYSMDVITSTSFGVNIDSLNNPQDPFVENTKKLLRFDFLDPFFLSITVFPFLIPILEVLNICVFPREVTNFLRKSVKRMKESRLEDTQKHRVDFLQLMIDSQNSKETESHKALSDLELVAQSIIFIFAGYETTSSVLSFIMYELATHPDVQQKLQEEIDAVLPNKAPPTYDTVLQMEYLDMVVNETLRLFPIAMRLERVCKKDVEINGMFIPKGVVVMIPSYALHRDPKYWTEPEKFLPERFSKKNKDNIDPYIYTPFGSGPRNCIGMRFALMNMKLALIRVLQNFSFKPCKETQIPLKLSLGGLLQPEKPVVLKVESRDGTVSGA

Cytochrome P450 2C19 = Cytochrome P450 2C19 (Homo sapiens, UniProt P33261); assay: Cytochrome panel assay with activity outcomes. Panel member name: p450-cyp2c19 Compounds with AC50 equal or less than 10 uM are considered active; format: functional; details: read-out: AC50
Chain of Cytochrome P450 2C19 (P33261 whole entry): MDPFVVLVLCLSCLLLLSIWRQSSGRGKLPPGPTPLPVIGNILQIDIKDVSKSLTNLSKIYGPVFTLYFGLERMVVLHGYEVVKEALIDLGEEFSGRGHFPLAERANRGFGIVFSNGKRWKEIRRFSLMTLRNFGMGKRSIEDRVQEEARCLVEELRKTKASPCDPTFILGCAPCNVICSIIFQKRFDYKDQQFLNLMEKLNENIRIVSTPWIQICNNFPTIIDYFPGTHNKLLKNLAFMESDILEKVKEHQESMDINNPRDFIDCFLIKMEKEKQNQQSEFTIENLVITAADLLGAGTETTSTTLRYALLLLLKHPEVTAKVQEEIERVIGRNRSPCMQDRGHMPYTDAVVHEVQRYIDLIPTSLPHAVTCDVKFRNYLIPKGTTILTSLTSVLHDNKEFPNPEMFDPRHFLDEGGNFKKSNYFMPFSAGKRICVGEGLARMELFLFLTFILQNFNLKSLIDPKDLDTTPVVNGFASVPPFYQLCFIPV

[6] = THP-1 cell cytotoxicity, dose response, cytotoxicity control for non-replicating M. tuberculosis project (AID 489025); format: functional
cells = format: functional
Streptokinase A = biological target: T5, Streptokinase A (Streptococcus pyogenes serotype M1, UniProt P10520); assay: viability-normalized secreted streptokinase activity reduction – plasminogen activation absorbance, OD405, dose response (AID 1914); format: functional, Streptococcus pyogenes M1 GAS;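 further: secreted streptokinase activity via plasminogen activation per viability signal from cell pellet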
T5 sequence (P10520 whole entry): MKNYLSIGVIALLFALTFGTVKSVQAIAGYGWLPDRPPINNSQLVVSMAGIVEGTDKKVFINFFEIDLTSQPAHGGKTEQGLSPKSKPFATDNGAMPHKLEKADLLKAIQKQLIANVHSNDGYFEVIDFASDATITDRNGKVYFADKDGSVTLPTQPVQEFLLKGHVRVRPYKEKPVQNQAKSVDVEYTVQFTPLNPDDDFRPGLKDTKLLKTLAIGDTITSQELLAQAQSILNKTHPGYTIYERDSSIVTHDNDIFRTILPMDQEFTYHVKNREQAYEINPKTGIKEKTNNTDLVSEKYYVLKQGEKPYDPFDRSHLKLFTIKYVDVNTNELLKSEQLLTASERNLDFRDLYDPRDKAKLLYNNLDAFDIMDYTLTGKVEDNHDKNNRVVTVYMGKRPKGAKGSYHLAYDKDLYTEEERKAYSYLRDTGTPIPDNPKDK

[7] = HepG2 cell cytotoxicity, dose response, cytotoxicity control for non-replicating M. tuberculosis project (AID 489018); format: functional; details: Mycobacterium tuberculosis
Genome polyprotein = Genome polyprotein (dengue virus type 2, UniProt P29990); assay: flavivirus cap methylation enzyme inhibition – biochemical, confirmation dose response, primary screen (AID 588689); format: functional
[8] = biological target: Dual specificity tyrosine-phosphorylation-regulated kinase 1A (Rattus norvegicus, UniProt Q63470); format: biochemical, Homo sapiens
[9] = biological target: Voltage-dependent T-type calcium channel subunit alpha-1H (Homo sapiens, UniProt O95180); format: functional;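 further: channel activity triggered by adding a high calcium stimulation buffer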
Chain of Voltage-dependent T-type calcium channel subunit alpha-1H (O95180 whole entry): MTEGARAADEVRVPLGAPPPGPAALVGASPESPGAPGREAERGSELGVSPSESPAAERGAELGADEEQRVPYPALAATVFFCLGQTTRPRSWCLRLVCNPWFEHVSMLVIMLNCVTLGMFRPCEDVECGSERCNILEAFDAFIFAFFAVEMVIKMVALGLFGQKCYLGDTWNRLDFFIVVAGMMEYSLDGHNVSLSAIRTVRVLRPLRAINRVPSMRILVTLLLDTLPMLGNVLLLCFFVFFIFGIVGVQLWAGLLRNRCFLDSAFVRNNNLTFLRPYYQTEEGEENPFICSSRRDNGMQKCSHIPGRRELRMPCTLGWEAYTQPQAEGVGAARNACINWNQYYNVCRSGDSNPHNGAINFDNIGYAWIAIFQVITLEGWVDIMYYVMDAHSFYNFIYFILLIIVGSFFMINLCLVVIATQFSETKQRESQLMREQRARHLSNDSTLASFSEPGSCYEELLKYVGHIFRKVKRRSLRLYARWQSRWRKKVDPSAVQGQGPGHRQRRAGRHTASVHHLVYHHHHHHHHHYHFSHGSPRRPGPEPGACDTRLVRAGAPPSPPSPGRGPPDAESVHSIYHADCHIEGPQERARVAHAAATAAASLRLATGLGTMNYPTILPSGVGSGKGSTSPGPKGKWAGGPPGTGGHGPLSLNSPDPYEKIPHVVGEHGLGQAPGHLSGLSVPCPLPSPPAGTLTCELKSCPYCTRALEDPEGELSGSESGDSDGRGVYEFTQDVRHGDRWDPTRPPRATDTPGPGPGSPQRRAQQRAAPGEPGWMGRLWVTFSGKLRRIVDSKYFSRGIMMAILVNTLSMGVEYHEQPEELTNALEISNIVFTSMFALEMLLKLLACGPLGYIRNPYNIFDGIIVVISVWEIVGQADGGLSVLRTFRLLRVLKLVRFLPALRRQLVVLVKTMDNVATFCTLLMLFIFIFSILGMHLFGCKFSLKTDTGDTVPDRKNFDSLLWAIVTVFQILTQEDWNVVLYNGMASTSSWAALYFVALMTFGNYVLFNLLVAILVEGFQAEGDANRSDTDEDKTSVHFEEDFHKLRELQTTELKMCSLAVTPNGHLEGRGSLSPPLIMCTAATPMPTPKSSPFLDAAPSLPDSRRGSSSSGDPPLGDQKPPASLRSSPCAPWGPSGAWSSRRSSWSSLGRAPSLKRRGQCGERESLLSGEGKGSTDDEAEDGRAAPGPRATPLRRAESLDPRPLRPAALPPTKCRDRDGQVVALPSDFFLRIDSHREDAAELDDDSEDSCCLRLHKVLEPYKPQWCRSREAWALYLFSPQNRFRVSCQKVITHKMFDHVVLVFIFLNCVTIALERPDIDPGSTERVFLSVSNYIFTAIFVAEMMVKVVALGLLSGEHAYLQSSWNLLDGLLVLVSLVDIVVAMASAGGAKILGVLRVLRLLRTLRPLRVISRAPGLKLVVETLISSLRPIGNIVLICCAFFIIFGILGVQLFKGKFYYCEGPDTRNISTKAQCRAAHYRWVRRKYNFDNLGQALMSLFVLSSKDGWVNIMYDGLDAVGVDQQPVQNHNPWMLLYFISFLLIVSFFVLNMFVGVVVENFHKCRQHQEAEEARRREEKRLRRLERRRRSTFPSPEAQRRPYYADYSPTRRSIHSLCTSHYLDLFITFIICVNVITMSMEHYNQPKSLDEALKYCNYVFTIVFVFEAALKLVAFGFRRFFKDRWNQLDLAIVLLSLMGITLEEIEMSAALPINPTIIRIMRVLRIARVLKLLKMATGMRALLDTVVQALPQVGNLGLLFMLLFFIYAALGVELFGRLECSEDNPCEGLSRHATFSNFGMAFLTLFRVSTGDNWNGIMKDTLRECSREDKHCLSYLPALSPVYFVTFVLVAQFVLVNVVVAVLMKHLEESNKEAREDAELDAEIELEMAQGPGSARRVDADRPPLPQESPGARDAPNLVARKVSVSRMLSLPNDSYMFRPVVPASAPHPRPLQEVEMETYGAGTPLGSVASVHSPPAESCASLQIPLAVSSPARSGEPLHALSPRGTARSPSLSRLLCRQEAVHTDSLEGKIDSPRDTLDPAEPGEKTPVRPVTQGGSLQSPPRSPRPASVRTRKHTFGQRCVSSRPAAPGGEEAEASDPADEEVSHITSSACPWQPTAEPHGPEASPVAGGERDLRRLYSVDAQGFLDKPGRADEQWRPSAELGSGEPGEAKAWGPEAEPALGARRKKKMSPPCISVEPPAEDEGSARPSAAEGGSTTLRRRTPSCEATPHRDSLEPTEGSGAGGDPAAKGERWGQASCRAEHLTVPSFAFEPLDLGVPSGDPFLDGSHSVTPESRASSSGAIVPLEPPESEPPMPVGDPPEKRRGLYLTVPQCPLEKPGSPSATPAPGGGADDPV

[10] = microbe, parasite or virus in culture; format: functional; details: Mycobacterium tuberculosis
Cytochrome P450 2C9 = Cytochrome P450 2C9 (Homo sapiens, UniProt P11712)
Chain of Cytochrome P450 2C9 (P11712 whole entry): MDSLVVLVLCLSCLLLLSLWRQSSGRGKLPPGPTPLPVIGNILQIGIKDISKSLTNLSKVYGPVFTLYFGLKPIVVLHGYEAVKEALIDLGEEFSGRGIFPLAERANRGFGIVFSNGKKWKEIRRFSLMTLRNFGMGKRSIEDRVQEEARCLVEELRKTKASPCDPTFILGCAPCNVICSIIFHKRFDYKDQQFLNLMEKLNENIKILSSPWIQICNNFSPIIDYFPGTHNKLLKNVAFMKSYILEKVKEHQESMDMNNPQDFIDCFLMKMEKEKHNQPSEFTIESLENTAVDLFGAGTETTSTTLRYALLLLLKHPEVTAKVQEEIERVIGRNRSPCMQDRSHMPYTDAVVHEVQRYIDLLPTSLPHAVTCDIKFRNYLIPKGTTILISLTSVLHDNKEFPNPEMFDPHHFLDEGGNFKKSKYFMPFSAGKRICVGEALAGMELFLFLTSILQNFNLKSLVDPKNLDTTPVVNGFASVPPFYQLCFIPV

Cytochrome P450 1A2 = biological target: T6, Cytochrome P450 1A2 (Homo sapiens, UniProt P05177);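 further: PubChem cytochrome P450 panel assay, CYP1A2 panel member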
T6 sequence (P05177 whole entry): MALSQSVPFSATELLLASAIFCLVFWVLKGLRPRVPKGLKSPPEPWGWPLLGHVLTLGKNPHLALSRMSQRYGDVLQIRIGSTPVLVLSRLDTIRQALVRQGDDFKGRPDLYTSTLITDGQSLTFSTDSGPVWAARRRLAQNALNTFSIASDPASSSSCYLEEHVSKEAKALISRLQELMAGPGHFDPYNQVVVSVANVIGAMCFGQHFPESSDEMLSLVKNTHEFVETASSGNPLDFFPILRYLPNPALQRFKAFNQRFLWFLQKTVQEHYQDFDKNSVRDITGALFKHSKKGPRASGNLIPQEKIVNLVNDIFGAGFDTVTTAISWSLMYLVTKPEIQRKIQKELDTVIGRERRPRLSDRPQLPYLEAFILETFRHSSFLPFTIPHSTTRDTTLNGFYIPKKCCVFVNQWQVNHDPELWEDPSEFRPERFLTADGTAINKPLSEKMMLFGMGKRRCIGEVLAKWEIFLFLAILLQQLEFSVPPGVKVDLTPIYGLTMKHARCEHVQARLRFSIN

CSc1ccc(C(=O)NCC(c2ccco2)N(C)C)cc1[N+](=O)[O-] (configuration not stated)
EC50 [1]: 0.0333 µM (active)

COc1ccc(C(CNc2nc(-c3cccnc3)nc3ccccc23)N(C)C)cc1 (configuration not stated)
EC50 [1]: 0.473 µM (active)

CC(C)c1ccc(OCC(=O)NNC(=S)NC(=O)C2CC2)cc1
IC50 [2]: 17.3 µM (active) | EC50 [3]: 0.85 µM (active) | IC50 [4]: 6.97 µM (active) | IC50 (Bcl-2-related protein A1): > 20 µM (inactive) | EC50 (Streptococcus): 1.33 µM (active)

CN(C)C(CNC(C(=O)Nc1ccc(F)cc1)c1ccccc1)c1ccccc1 (configuration not stated)
EC50 [1]: 0.596 µM (active)

Cn1c(=O)c2c(ncn2Cc2cccc(Cl)c2)n(C)c1=O
IC50 [2]: 10.4 µM (active) | IC50 [4]: 11.2 µM (active) | IC50 (Bcl-2-related protein A1): > 20 µM (inactive)

CC(=O)Nc1ccc(C2(c3ccc(NC(C)=O)cc3)C(=O)Nc3ccccc32)cc1
EC50 [1]: 1.5 µM (active)

COc1ccc(C(CNC(=O)c2cccc(NS(=O)(=O)c3ccc(C)c(F)c3)c2)N(C)C)cc1 (configuration not stated)
EC50 [1]: 5.31 µM (active)

COc1ccccc1NCC(=O)c1ccc(Cl)cc1
IC50 [5]: 35.3 µM (not active) | EC50 (Beta-galactosidase): > 40 µM (inactive)

CN1CCN(c2ncc3nc(-c4ccc(Cl)cc4)c(=O)n(C4CC4)c3n2)CC1
AC50 (Cytochrome P450 3A4): inconclusive

CCOc1cccc(OCCCNCCCOC)c1
AC50 (Cytochrome P450 3A4): inconclusive | AC50 (Cytochrome P450 2C19): 28.2 µM (inconclusive)

O=C(N/N=C/c1ccc([N+](=O)[O-])o1)c1ccc(NS(=O)(=O)c2cccs2)cc1
EC50 [3]: 1.24 µM (active) | CC50 [6]: 15.9 µM (active) | IC50 (cells): 7.09 µM (active) | EC50 (Streptococcus): 6.83 µM (active) | EC50 (Streptokinase A): > 150 µM (not active) | CC50 [7]: 12.9 µM (active)

CN(C)C/C=C/C(=O)Nc1cccc(-c2c[nH]c3ncnc(Oc4ccc(NC(=O)CC(=O)Nc5ccc(F)cc5)cc4F)c23)c1
IC50 [2]: 3.5 µM (active) | IC50 [4]: 2.28 µM (active) | IC50 (Bcl-2-related protein A1): > 20 µM (inactive)

N#CC(C#N)=CC1=C2OC(c3ccccc3)=CC(c3ccccc3)=C2CCC1
IC50 [5]: > 40 µM (not active) | EC50 (Beta-galactosidase): > 40 µM (inactive)

O=C1NC(=O)/C(=C/c2ccc(-c3cc(C(=O)O)ccc3Cl)o2)S1
IC50 (Genome polyprotein): 49.4 µM (active) | AC50 [8]: 2.56 µM (active)

O=C(NCC1CCN(c2ccc(S(=O)(=O)N3CCOCC3)cc2)CC1)c1ccc(Cl)cc1
EC50 [9]: 21.2 µM (active) | CC50 [10]: > 40 µM (active) | CC50 [6]: > 40 µM (active) | IC50 (cells): 31.3 µM (active) | CC50 [7]: > 20 µM (active)

O=C1C2C3C=CC(CC3)C2C(=O)N1/N=C/c1ccccc1O (configuration not stated)
AC50 (Cytochrome P450 3A4): inconclusive | AC50 (Cytochrome P450 2C9): 14.1 µM (inconclusive) | AC50 (Cytochrome P450 1A2): 1.78 µM (inconclusive) | AC50 (Cytochrome P450 2C19): 15.8 µM (inconclusive)

Cc1ccc(-c2oc3ncnc(N)c3c2-c2ccc(C)cc2)cc1
IC50 [2]: 12.5 µM (active) | IC50 [4]: 4.6 µM (active) | IC50 (Bcl-2-related protein A1): > 20 µM (inactive)

COCCNC(=O)Cn1cnc2ccc(S(=O)(=O)N3CCC(C)CC3)cc2c1=O
AC50 (Cytochrome P450 3A4): inconclusive | AC50 (Cytochrome P450 2C9): 10 µM (inconclusive)

CSCCC(NC(=O)COc1ccccc1)C(=O)OCC(=O)c1cc2ccccc2o1 (configuration not stated)
IC50 [5]: 31.2 µM (not active) | EC50 (Beta-galactosidase): > 40 µM (inactive)
